In data set [1] the test system is lipooxygenase (LOX). Put plainly: Lipooxygenase inhibition assay. Type of data set: biochemical. The text has this: (§1) The anti-inflammatory activity of vasicine was investigated with lipooxygenase (LOX) inhibition assay ([26]), bovine serum albumin (BSA) method ([27]), egg albumin method ([28], [29]), and protein inhibitory action ([30]).
Data set [2] deals with T1, egg albumin (Gallus gallus, UniProt P01012).
T1 sequence (P01012 1-386): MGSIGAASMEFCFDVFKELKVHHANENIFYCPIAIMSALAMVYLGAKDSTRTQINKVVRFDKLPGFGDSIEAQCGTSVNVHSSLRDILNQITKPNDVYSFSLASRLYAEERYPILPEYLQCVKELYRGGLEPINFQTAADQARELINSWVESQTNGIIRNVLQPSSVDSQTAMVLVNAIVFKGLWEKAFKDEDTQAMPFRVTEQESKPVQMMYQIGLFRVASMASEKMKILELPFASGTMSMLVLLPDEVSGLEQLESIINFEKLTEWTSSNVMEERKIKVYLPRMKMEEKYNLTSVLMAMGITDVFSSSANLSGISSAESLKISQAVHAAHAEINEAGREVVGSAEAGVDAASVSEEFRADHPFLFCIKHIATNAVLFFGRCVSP
The data set is described as follows: Egg albumin method (albumin denaturation). Type of data set: biochemical. To be noted: for Inhibition of albumin denaturation: concentration range 10 to 100 μg/ml.
From the text: as §1

Data set [3] is described as follows: DPPH radical scavenging activity. To be noted: for DPPH % inhibition: at 100 μg/ml. The protocol: (§2) The anti-oxidant activity of vasicine was evaluated with ABTS [2,2′-azino-bis (3-ethylbenzothiazoline-6-sulfonic acid)] activity ([20]), ferric reducing power (FRAP) assay, DPPH radical scavenging activity, hydroxyl radical scavenging activity ([21]–[24]), and hydrogen peroxide assay ([25]).
In general terms: DPPH is a stable violet radical that fades when it is reduced.

Data set [4] is described as follows: Hydrogen peroxide assay. On the procedure:
as §2

The test system of data set [5] is human fibroblast cell line, C0135C. Put plainly: Cytotoxicity evaluation, MTT assay. Type of data set: cell-based. To be noted: cell viability. The protocol:
(§3) The anticancer activity of vasicine for the potential treatment of lung carcinoma (A545) was evaluated in a multi-step process. Cytotoxicity of vasicine was investigated by cytotoxicity evaluation (human fibroblast cell line, C0135C) ([39], [40]), direct microscopic observation ([41]), and MTT assay ([42]).

For data set [6], the target named is α-amylase. Put plainly: α-amylase inhibition assay. Type of data set: biochemical. The protocol:
(§4) The antidiabetic activity of vasicine was evaluated with in vitro enzymatic assays using α-amylase and α-glucosidase ([31]–[36]). The non-enzymatic glycosylation of hemoglobin assay was also carried out ([37]).

The nature of data set [7]: Hydroxyl radical scavenging assay. To be noted: for Hydroxyl radical scavenging % inhibition: range, up to 100 μg/ml. On the procedure: as §2
Data set [8] relates to lung carcinoma (A545). Put plainly: Anticancer activity, direct microscopic observation and MTT assay. Type of data set: cell-based. On the procedure:
as §3
(In general: Formazan colour is commonly taken as a measure of viable cells.)

For data set [9], the system named is Escherichia coli. Put plainly: Antibacterial colony forming units (CFU) assay. Type of data set: cell-based. To be noted: E. coli; increasing concentration of purified vasicine. On the procedure:
(§5) Antibacterial assay was carried outby colony forming units (CFU) assay using anaerobic and facultative oral bacteria ([17]). Two different bacterial strains (Escherichia coli and Bacillus badius) were collected from NCCS, Pune. […] The broth were kept in incubator at 37°C for 24 h. Two strains of Bacteria were grown in MH broth to an OD600nm of 0.5. 2 μLaliquot of the bacteria and 5 ml of fresh MH broth (contains various concentration of vasicine) was added ([19]). The log10 reduction in CFU/ml was determined.

For data set [10], the system named is Bacillus badius. The data set is described as follows: Antibacterial colony forming units (CFU) assay. Type of data set: cell-based. To be noted: increasing concentration of purified vasicine. On the procedure: as §5
Data set [11] can be described thus: Ferric reducing antioxidant power (FRAP) assay. On the procedure:
as §2

Data set [12] concerns the target proteinase. Put plainly: Proteinase inhibitory activity. Type of data set: biochemical.
From the text: as §1

Data set [13] addresses hemoglobin (Homo sapiens, UniProt P68871+P69905). The data set is described as follows: Non-enzymatic glycosylation of hemoglobin assay. To be noted: incubation of hemoglobin with glucose for 72 h; in comparison to the standard drug. Type of data set: biochemical. On the procedure:
as §4

Data set [14] has as its system serum alkaline phosphatase. Set-up: method as in Srinivasarao et al. ([60]). To be noted: Swiss albino mice treated with vasicine; ref Srinivasarao et al. ([60]); cited from earlier work.
The target of data set [15] is bovine serum albumin (BSA) (Bos taurus, UniProt P02769). Put plainly: BSA method (albumin denaturation). Type of data set: biochemical.
From the text: as §1

A short description of data set [16]: ABTS scavenging activity. The protocol: as §2

In brackets after ≈: the same amount, converted by molar mass.

Chain of bovine serum albumin (BSA) (P02769 25-607): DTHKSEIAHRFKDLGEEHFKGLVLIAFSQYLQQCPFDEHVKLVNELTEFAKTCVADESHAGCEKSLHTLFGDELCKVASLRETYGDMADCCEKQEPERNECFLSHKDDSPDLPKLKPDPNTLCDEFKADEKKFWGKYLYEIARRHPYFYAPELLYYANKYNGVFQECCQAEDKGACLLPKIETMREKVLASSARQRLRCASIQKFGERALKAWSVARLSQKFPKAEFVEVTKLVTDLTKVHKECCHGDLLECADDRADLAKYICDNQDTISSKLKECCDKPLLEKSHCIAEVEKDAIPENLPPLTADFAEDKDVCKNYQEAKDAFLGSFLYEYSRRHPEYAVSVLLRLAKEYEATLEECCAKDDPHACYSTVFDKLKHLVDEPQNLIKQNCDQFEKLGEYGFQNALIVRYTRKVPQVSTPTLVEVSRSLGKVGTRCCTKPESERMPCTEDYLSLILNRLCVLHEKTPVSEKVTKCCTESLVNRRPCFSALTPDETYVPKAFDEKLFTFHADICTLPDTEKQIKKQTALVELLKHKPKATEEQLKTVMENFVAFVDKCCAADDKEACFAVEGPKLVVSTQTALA
Chain of hemoglobin (P69905 2-142 limits assumed): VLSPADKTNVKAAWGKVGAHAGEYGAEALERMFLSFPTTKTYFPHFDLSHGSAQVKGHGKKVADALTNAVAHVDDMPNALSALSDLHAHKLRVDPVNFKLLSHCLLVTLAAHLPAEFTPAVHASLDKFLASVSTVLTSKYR
Chain of hemoglobin (P68871 2-147 limits assumed): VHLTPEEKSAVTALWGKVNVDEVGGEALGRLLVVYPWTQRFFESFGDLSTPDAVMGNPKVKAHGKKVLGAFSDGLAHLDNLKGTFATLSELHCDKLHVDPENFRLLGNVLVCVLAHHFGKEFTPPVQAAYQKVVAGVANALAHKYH

For `O=C(O)Cc1ccccc1Nc1c(Cl)cccc1Cl` [diclofenac sodium, reference compound], the Lipooxygenase % inhibition in data set [1] (at 100 μg/ml) came out at 82%. Also, the “Inhibition of albumin denaturation” value in data set [2] was 89%.

In general, IC50 refers to the concentration that gives 50% inhibition. Higher therefore signals weaker potency in that assay. In general, inhibition refers to how much of the control response was suppressed. Regarding `O[C@H]1CCN2Cc3ccccc3N=C12` [vasicine], in data set [3], the “DPPH radical scavenging IC50” value came out at 18.2 µg/mL and the DPPH % inhibition was 81%. For the same compound, the “Hydrogen peroxide assay IC50” value in data set [4] was 27.8 µg/mL. Besides, the “Inhibitory activity against hydrogen peroxide” value in data set [4] (10–100 μg) is reported as 9–59%. Also, the IC50 in data set [5] amounted to 82.5 µg/mL (≈ 438 µM). Also, the “α-amylase inhibition IC50” value in data set [6] turned out to be 47.6 µg/mL. For the same compound, the “Lipooxygenase IC50” value in data set [1] is 76 µg/mL. In data set [1] (maximum), the “Lipooxygenase maximum percentage inhibition” value is given as 83%. In data set [7], the “Hydroxyl radical scavenging IC50” value came to 22 µg/mL and the “Hydroxyl radical scavenging % inhibition” value is given as 12–69%. Further, the inhibition at 100 µg/mL in data set [8] (A545, read-out: Growth inhibition of lung cancer cell line) amounted to 30.1%. The “Inhibition of cell growth, lung cancer cell line” value in data set [8] (discussion statement, concentration not given) is listed as “More than 50%”. Also, the “Number of colonies (CFU assay)” value in data set [9] is given as “number of colonies reduced”. For the same compound, the “Number of colonies (CFU assay)” value in data set [10] is on record as “number of colonies reduced”. Further, in data set [11], the “FRAP IC50” value came out at 15 µg/mL. The compound further showed an FRAP % inhibition in data set [11] (at 100 μg/ml) of 62%. Besides, the “Proteinase inhibitory IC50” value in [12] worked out at 76 µg/mL. The “Inhibition of hemoglobin glycosylation” value in [13] is “substantially inhibits hemoglobin glycosylation”. In data set [14], the Serum alkaline phosphatase result is recorded as “increase in serum alkaline phosphatase”. Moreover, the IC50 in data set [15] was 275 µM. For the same compound, the “BSA method maximum percentage of inhibition” value in data set [15] (maximum) is on record as 82%. Further, the “ABTS scavenging IC50” value in data set [16] stood at 11.5 µg/mL. Also, in [2], the IC50 is 283 µM and the “Inhibition of albumin denaturation” value is 81%.

Consider `O=C1O[C@H]([C@@H](O)CO)C(O)=C1O` [ascorbic acid, reference compound], for which the DPPH % inhibition in [3] is reported as 96%. For the same compound, in [7], the “Hydroxyl radical scavenging % inhibition” value is listed as 15–86%.

In the case of `CC(=O)Oc1ccccc1C(=O)O` [aspirin, reference compound], the Proteinase % inhibition in data set [12] (standard) came out at 79%.

The values are drawn from paper PMC10099809, “Valorization of Adhatoda vasica leaves: Extraction, in vitro analyses and in silico approaches” (Frontiers in Nutrition, 2023).
